US10654845B2, “2-(het)aryl-substituted fused bicyclic heterocycle derivatives as pesticides” (BAYER CROPSCIENCE AKTIENGESELLSCHAFT, priority 2015, dated 2020)

Key:
[1] = log P by HPLC on reversed-phase column (C18), EEC Directive 79/831 Annex V.A8
Excerpt: Called log P (HCOOH) in the table.
Called log P (neutral) in the table.

Phaedon cochleariae = Phaedon cochleariae spray test; assay type: in vivo; settings: after 7 days, beetle larvae killed; for pest or weed control at 500 g/ha: Phaedon cochleariae, 168 h, read-out: efficacy in %
Protocol: Phaedon cochleariae-Spray Test
Solvent: 78.0 parts by weight of acetone
(§1) • 1.5 parts by weight of dimethylformamide Emulsifier: alkylaryl polyglycol ether
(§2) To produce a suitable preparation of active compound, 1 part by weight of active compound is dissolved using the stated parts by weight of solvent and made up with water containing an emulsifier concentration of 1000 ppm until the desired concentration is attained. To produce further test concentrations, the preparation is diluted with emulsifier-containing water.
After 7 days, the efficacy in % is determined. 100% means that all the beetle larvae have been killed; 0% means that no beetle larvae have been killed.

Myzus persicae = Myzus persicae spray test (Chinese cabbage leaf discs); assay type: in vivo; settings: after 6 days, aphids killed
Protocol: Myzus persicae Spray Test
Solvent: 78 parts by weight of acetone
as §1, §2
Discs of Chinese cabbage leaves (Brassica pekinensis) infested by all stages of the green peach aphid (Myzus persicae) are sprayed with an active compound preparation of the desired concentration.
After 6 days, the efficacy in % is determined. 100% means that all the aphids have been killed; 0% means that no aphids have been killed.

[2] = reversed-phase HPLC column (C18), pH 7.8, log P (neutral), preparation examples, neutral range, pH 7.8
[3] = LC-MS acidic range, pH 2.7 (HCOOH), C18, 55° C.
[4] = LC-MS neutral range, pH 7.8, C18, 55° C.
[5] = reversed-phase HPLC column (C18), pH 2.7, logP-acidic, LC-MS acidic range, pH 2.7 (HCOOH), C18, 55° C.
[6] = reversed-phase HPLC column (C18), pH 7.8, logP-neutral, LC-MS neutral range, pH 7.8, C18, 55° C.

Row | SMILES | chromatographic logP [1, 2] | logP-acidic ([1]; pH 2.7) | logP-neutral ([1]; pH 7.8) | efficacy in % (Phaedon cochleariae; 500 g/ha) [%] | other results
1 | CCS(=O)(=O)c1ccc(C(=O)O)nc1-c1nc2cc(C(F)(F)F)ncc2n1C [5-(Ethylsulphonyl)-6-[3-methyl-6-(trifluoromethyl)-3H-imidazo[4,5-c]pyridin-2-yl]pyridine-2-carboxylic acid] | 0.76 |  |  |  | 
2 | Cn1c(-c2nc(F)ccc2F)nc2cc(C(F)(F)F)ncc21 [Ex. IX-2, 2-(3,6-Difluoropyridin-2-yl)-3-methyl-6-(trifluoromethyl)-3H-imidazo[4,5-c]pyridine] | 2.11 |  |  |  | 
3 | CCSc1ccc(F)nc1-c1nc2cc(C(F)(F)F)ncc2n1C [Ex. XI-2, 2-[3-(Ethylsulphanyl)-6-fluoropyridin-2-yl]-3-methyl-6-(trifluoromethyl)-3H-imidazo[4,5-c]pyridine] | 2.73 |  |  |  | 
4 | CCS(=O)(=O)c1ccc(F)nc1-c1nc2cc(C(F)(F)F)ncc2n1C [Ex. XIII-2, 2-[3-(Ethylsulphonyl)-6-fluoropyridin-2-yl]-3-methyl-6-(trifluoromethyl)-3H-imidazo[4,5-c]pyridine] | 2.3 |  |  |  | 
5 | CCSc1ccc(NC(=O)C2CC2)nc1-c1nc2cc(C(F)(F)F)ncc2n1C [Example 1] |  | 2.80 | 2.79 | 100 | 
6 | CCC(=O)Nc1ccc([S+]([O-])CC)c(-c2nc3cc(C(F)(F)F)ncc3n2C)n1 (centres unmarked) [Example 2] |  | 2.33 | 2.25 | 100 | efficacy in % (Myzus persicae; 500 g/ha): 90%
7 | CCS(=O)(=O)c1ccc(NC(=O)C(F)(F)F)nc1-c1nc2cc(C(F)(F)F)ncc2n1C [Example 3] |  | 2.74 | 1.73 | 100 | efficacy in % (Myzus persicae; 500 g/ha): 100%
8 | CCS(=O)(=O)c1ccc(NC(=O)C(F)(F)C(F)(F)F)nc1-c1nc2cc(C(F)(F)F)ncc2n1C [Example 4] |  |  |  | 100 | efficacy in % (Myzus persicae; 500 g/ha): 100%; logP-acidic [1, 3]: 3.17; logP-neutral [1, 4]: 1.94
9 | CCSc1ccc(S(=O)(=O)CC)c(-c2nc3cc(C(F)(F)F)ncc3n2C)n1 [Example 5, 2-[6-(Ethylsulphanyl)-3-(ethylsulphonyl)pyridin-2-yl]-3-methyl-6-(trifluoromethyl)-3H-imidazo[4,5-c]pyridine] | 3.14 |  |  |  | chromatographic logP [1, 5]: 3.19; chromatographic logP [1, 6]: 3.14
10 | CCSc1ccc(NC(=O)C(F)(F)F)nc1-c1nc2cc(C(F)(F)F)ncc2n1C [Example 6] |  | 3.18 |  | 100 | 
11 | CCS(=O)(=O)c1ccc(NC(=O)CC2CC2)nc1-c1nc2cc(C(F)(F)F)ncc2n1C [Example 7] |  | 2.71 | 2.66 | 100 | efficacy in % (Myzus persicae; 500 g/ha): 90%
12 | CCS(=O)(=O)c1ccc(C(=O)OC)nc1-c1nc2cc(C(F)(F)F)ncc2n1C [Example 12, Methyl 5-(ethylsulphonyl)-6-[3-methyl-6-(trifluoromethyl)-3H-imidazo[4,5-c]pyridin-2-yl]pyridine-2-carboxylate] | 2.17 |  |  |  | chromatographic logP [1, 5]: 2.17; chromatographic logP [1, 6]: 2.17
13 | CCS(=O)(=O)c1ccc(S(=O)(=O)CC)c(-c2nc3cc(C(F)(F)F)ncc3n2C)n1 [Example 15, 2-[3,6-Bis(ethylsulphonyl)pyridin-2-yl]-3-methyl-6-(trifluoromethyl)-3H-imidazo[4,5-c]pyridine] | 2.27 |  |  |  | chromatographic logP [1, 5]: 2.31; chromatographic logP [1, 6]: 2.28; pest or weed control at 500 g/ha (Phaedon cochleariae; 500 g/ha): 100%
14 | CCS(=O)(=O)c1ccc(Oc2cc(C(F)(F)F)n[nH]2)nc1-c1nc2cc(C(F)(F)F)ncc2n1C [Example 17] |  | 2.77 | 2.69 |  | 
15 | CCSc1ccc(NC(=O)c2ccccc2)nc1-c1nc2cc(C(F)(F)F)ncc2n1C [Example 19] |  | 3.36 |  |  | 
16 | CCSc1ccc(NC(=O)CC)nc1-c1nc2cc(C(F)(F)F)ncc2n1C [Example 27] |  | 2.73 | 2.62 | 100 | 
17 | CCS(=O)(=O)c1ccc(SCc2ccccc2)nc1-c1nc2cc(C(F)(F)F)ncc2n1C [Example 30, 2-[6-(Benzylsulphanyl)-3-(ethylsulphonyl)pyridin-2-yl]-3-methyl-6-(trifluoromethyl)-3H-imidazo[4,5-c]pyridine] |  |  |  |  | chromatographic logP ([1]; pH 2.7): 3.81; chromatographic logP ([1]; pH 7.8): 3.72
18 | CCNC(=O)c1ccc(S(=O)(=O)CC)c(-c2nc3cc(C(F)(F)F)ncc3n2C)n1 [Example 32] |  | 2.29 | 2.22 | 100 | 
19 | CCS(=O)(=O)c1ccc(Sc2ccccc2)nc1-c1nc2cc(C(F)(F)F)ncc2n1C [Example 42] |  |  |  |  | logP-acidic [1, 3]: 3.68; logP-neutral [1, 4]: 3.64
20 | CCS(=O)(=O)c1ccc([S+](C)[O-])nc1-c1nc2cc(C(F)(F)F)ncc2n1C (centres unmarked) [Example 44] |  |  |  |  | efficacy in % (Myzus persicae; 500 g/ha): 90%
21 | CCS(=O)(=O)c1ccc(C(N)=O)nc1-c1nc2cc(C(F)(F)F)ncc2n1C [Example 46] |  |  |  | 100 | logP-acidic [1, 3]: 1.78; logP-neutral [1, 4]: 1.68
22 | CCS(=O)(=O)c1ccc(NC(=O)Cc2ccccc2)nc1-c1nc2cc(C(F)(F)F)ncc2n1C [Example 68] |  |  |  | 100 | 

More lines, main results first:

Row | chromatographic logP [1, 2] | logP-acidic ([1]; pH 2.7) | logP-neutral ([1]; pH 7.8) | SMILES | efficacy in % (Phaedon cochleariae; 500 g/ha) [%] | other results
23 |  | 2.47 |  | CCS(=O)(=O)c1ccc(N(S(C)(=O)=O)S(C)(=O)=O)nc1-c1nc2cc(C(F)(F)F)ncc2n1C [Example 25] |  | 
24 | 0.85 |  |  | CCS(=O)(=O)c1ccc(NS(C)(=O)=O)nc1-c1nc2cc(C(F)(F)F)ncc2n1C [Example 26, N-{5-(Ethylsulphonyl)-6-[3-methyl-6-(trifluoromethyl)-3H-imidazo[4,5-c]pyridin-2-yl]pyridin-2-yl}methanesulphonamide] |  | chromatographic logP [1, 5]: 1.92; chromatographic logP [1, 6]: 0.85; pest or weed control at 500 g/ha (Phaedon cochleariae; 500 g/ha): 100%
25 | 2.75 |  |  | CCS(=O)(=O)c1ccc(SC)nc1-c1nc2cc(C(F)(F)F)ncc2n1C [Example 28, 2-[3-(Ethylsulphonyl)-6-(methylsulphanyl)pyridin-2-yl]-3-methyl-6-(trifluoromethyl)-3H-imidazo[4,5-c]pyridine] |  | chromatographic logP [1, 5]: 2.81; chromatographic logP [1, 6]: 2.75
26 |  | 3.17 | 3.14 | CCNC(=S)c1ccc(S(=O)(=O)CC)c(-c2nc3cc(C(F)(F)F)ncc3n2C)n1 [Example 35] |  | 
27 |  | 2.66 | 2.66 | CCS(=O)(=O)c1ccc([S+]([O-])Cc2ccccc2)nc1-c1nc2cc(C(F)(F)F)ncc2n1C (centres unmarked) [Example 39] |  | 
28 | 1.79 |  |  | CCS(=N)(=O)c1ccc(S(=O)(=O)CC)c(-c2nc3cc(C(F)(F)F)ncc3n2C)n1 (centres unmarked) [Example 41, 2-[6-(S-Ethylsulphonimidoyl)-3-(ethylsulphonyl)pyridin-2-yl]-3-methyl-6-(trifluoromethyl)-3H-imidazo[4,5-c]pyridine] |  | chromatographic logP [1, 5]: 1.78; chromatographic logP [1, 6]: 1.79
29 |  | 2.08 | 2.08 | CCS(=O)(=O)c1ccc(S(C)(=O)=O)nc1-c1nc2cc(C(F)(F)F)ncc2n1C [Example 45] |  | 
30 |  | 2.15 | 2.08 | CCS(=O)(=O)c1ccc(S(=O)(=O)NC)nc1-c1nc2cc(C(F)(F)F)ncc2n1C [Example 47] |  | 
31 |  | 2.36 | 2.30 | CCNS(=O)(=O)c1ccc(S(=O)(=O)CC)c(-c2nc3cc(C(F)(F)F)ncc3n2C)n1 [Example 48] |  | 
32 | 2.49 |  |  | CCS(=O)(=O)c1ccc(S(=O)(=O)NC(C)C)nc1-c1nc2cc(C(F)(F)F)ncc2n1C [Example 49, 5-(Ethylsulphonyl)-N-isopropyl-6-[3-methyl-6-(trifluoromethyl)-3H-imidazo[4,5-c]pyridin-2-yl]pyridine-2-sulphonamide] |  | chromatographic logP [1, 5]: 2.56; chromatographic logP [1, 6]: 2.49
33 |  | 2.54 | 2.47 | CCS(=O)(=O)c1ccc(S(=O)(=O)N(C)C)nc1-c1nc2cc(C(F)(F)F)ncc2n1C [Example 50] |  | 
34 |  | 3.37 | 3.36 | CCCOc1ccc(S(=O)(=O)CC)c(-c2nc3cc(C(F)(F)F)ncc3n2C)n1 [Example 51] | 100 | 
35 |  | 2.08 | 2.12 | CCS(=O)(=O)c1ccc(NC(=O)c2cccnc2)nc1-c1nc2cc(C(F)(F)F)ncc2n1C [Example 54] | 100 | 
36 |  | 2.08 | 0.90 | CCS(=O)(=O)Nc1ccc(S(=O)(=O)CC)c(-c2nc3cc(C(F)(F)F)ncc3n2C)n1 [Example 59] |  | efficacy in % (Myzus persicae; 100 g/ha): 100%
37 |  | 3.37 | 3.37 | CCS(=O)(=O)c1ccc(NC(=O)c2ccc(Cl)cc2)nc1-c1nc2cc(C(F)(F)F)ncc2n1C [Example 73] |  | efficacy in % (Phaedon cochleariae; 100 g/ha): 100%
38 | 2.01 |  |  | CCS(=O)(=O)c1ccc(NC(C)=O)nc1-c1nc2cc(C(F)(F)F)ncc2n1C [N-[5-Ethylsulphonyl-6-[3-methyl-6-(trifluoromethyl)imidazo[4,5-c]pyridin-2-yl]-2-pyridyl]acetamide] |  | 
